Source: publication PMC6566875, “Synthesis and characterisation of a new benzamide-containing nitrobenzoxadiazole as a GSTP1-1 inhibitor endowed with high stability to metabolic hydrolysis” (Journal of Enzyme Inhibition and Medicinal Chemistry, 2019)
Read-outs that look alike come from different tables or passages of the source.

Assays:
human GSTP1-1 [1] = target: T1, human GSTP1-1 (Homo sapiens, UniProt P09211); experiment: GSTP1-1 catalytic activity inhibition (CDNB-GSH conjugation, spectrophotometric); type: biochemical; details: detergent-free buffer
T1 construct: made in house; host or cells: E. coli Top 10
T1 sequence (P09211 2-210 limits assumed): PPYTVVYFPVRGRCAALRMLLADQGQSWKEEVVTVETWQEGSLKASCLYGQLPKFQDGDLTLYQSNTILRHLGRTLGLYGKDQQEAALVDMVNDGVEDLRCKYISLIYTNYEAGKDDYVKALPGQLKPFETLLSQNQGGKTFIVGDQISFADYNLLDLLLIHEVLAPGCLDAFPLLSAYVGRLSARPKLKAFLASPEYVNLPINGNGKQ
Experimental: The enzymatic activity of GSTP1-1 (20 nM subunits) was spectrophotometrically assayed at 340 nm (ε = 9,600 M^−1 cm^−1) and at 25 °C, by measuring the rate of 1-cloro-2,4-dinitrobenzene (CDNB) conjugation with GSH as a function of time[20]. The assay mixture contained 1 mM GSH and 1 mM CDNB in 1 mL of buffer B (0.1 M potassium phosphate buffer, pH 6.5 containing 0.1 mM EDTA).

human GSTP1-1 [2] = target: T1, human GSTP1-1; details: 1 mM GSH, 1 mM CDNB, pH 6.5, 25 °C; read-out: GSTP1-1 inhibition assay IC50; cited from earlier work
TRAF2-GSTP1-1 complex = target: T2, TRAF2-GSTP1-1 complex (Homo sapiens, UniProt P09211); experiment: ELISA for TRAF2-GSTP1-1 protein-protein interaction; type: binding; details: 20 µM compound, pH 7.0
T2 construct: made in house; host or cells: E. coli Top 10 (GSTP1-1); E. coli BL21 (DE3) (TRAF2)
T2 sequence (P09211 2-210 limits assumed, one chain of several): as the sequence (P09211 2-210 limits assumed) above
Experimental: The formation of the TRAF2-GSTP1-1 complex was studied as previously described. Briefly, 200 µL of His-tagged TRAF2 C-terminal domain (0.005 µM in 20 mM Tris–HCl, pH 7.6, containing 150 mM NaCl and 10% glycerol) were added to each well of a 96-well His-Sorb plate (Qiagen, Hilden, Germany) and incubated overnight, at 4 °C, on a rocking platform. Afterwards, wells were washed with PBS and incubated for 30 min with GSTP1-1 (concentration range from 0.1 to 2 µM) in 10 mM potassium phosphate buffer, pH 7.0, containing 0.1 mM EDTA. Incubation with GSTP1-1 was also performed in the presence of 1 (20 µM), 3 (20 µM) or 4 (20 µM), both in the absence and presence of GSH (1 mM). At the end of incubation, the wells were washed with PBS and then filled with 200 µL of a mouse anti-GSTP1-1 antibody (Cell Signalling, Beverly, MA, USA; 1:1000 in TBS containing 0.1% Tween and 5% non-fat dry milk) for 2 h at room temperature. Subsequently, wells were washed with PBS and incubated with an antimouse IgG antibody (Cell Signalling; 1:1000 in TBS containing 0.1% Tween and 5% non-fat dry milk) for 45 min at room temperature. The immunocomplexes were detected by the addiction of 200 µL/well of the 1-Step-Turbo TMB substrate solution (Pierce, Rockford, IL, USA). The reaction was stopped after 10 min by the addition of 50 µL of 2M H2SO4, and the absorbance was measured at 450 nm. Data were analysed by fitting to Equation (1) where ν is the percentage of the saturated binding sites of TRAF2; [P]t and [L]t are the total concentrations of monomeric GSTP1-1 and TRAF2, respectively.

Maximal inhibition of GSTP1-1 conjugation activity (human GSTP1-1 [1]; 0.01-20 µM compound) | IC50 (human GSTP1-1 [1]; 1 mM GSH, 1 mM CDNB, pH 6.5, 25 °C) | Ki (human GSTP1-1 [1]; 1 mM GSH, 1 mM CDNB, pH 6.5, 25 °C, read-out: Ki app (GSTP1-1 enzyme activity)) | Extent of inhibition of GSTP1-1 enzyme activity (human GSTP1-1 [1]; 0.01-20 µM compound) | Structure (SMILES) | IC50 (human GSTP1-1 [2]) | Effect on TRAF2-GSTP1-1 complex formation (TRAF2-GSTP1-1 complex; absence of GSH) | Effect on TRAF2-GSTP1-1 complex formation (TRAF2-GSTP1-1 complex; presence of GSH (1 mM))
no more than 50% | – | – | – | O=C(OCCCCCCSc1ccc([N+](=O)[O-])c2nonc12)c1ccccc1 [Compound 3, 6-((7-nitrobenzo[c][1,2,5]oxadiazol-4-yl)thio)hexyl benzoate, reference compound] | 600 ± 300 nM | – | –
– | 700 ± 100 nM | 700 ± 100 nM | completely inhibited | O=C(NCCCCCCSc1ccc([N+](=O)[O-])c2nonc12)c1ccccc1 [Compound 4, N-(6-((7-nitrobenzo[c][1,2,5]oxadiazol-4-yl)thio)hexyl)benzamide] | – | inhibited TRAF2-GST-P1-1 complex formation | inhibited TRAF2-GST-P1-1 complex formation
– | – | – | – | O=[N+]([O-])c1ccc(SCCCCCCO)c2nonc12 [Compound 1, 6-((7-nitrobenzo[c][1,2,5]oxadiazol-4-yl)thio)hexan-1-ol, reference compound] | – | – | overlaps those obtained with 3 and 4
